This note sets out measurements from patent publication US8362236B2, “Macrocyclic compound” (Chugai Seiyaku Kabushiki Kaisha, priority 2007, dated 2013).

The structures appear in SMILES notation. Where only a bound is given, the exact number is not on record here.

The subject of one experiment is HCT116 cells. Briefly: Measurement of cell growth inhibition (Cell Counting Kit-8, four days).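 Also: cells exposed to a range of test concentrations at 37 °C in 5% CO2 for four days, then growth read as absorbance with Cell Counting Kit-8.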 The following applies: Homo sapiens, HCT-116, 96 h, read-out: Cell growth-inhibiting activity (IC50, μM) Colon cancer HCT116, HCT116 colon cancer cell line, four days culture. For orientation: Tetrazolium dyes change colour on reduction, which living cells bring about.
Another experiment concerns the target T1, Human HSP90 alpha (Homo sapiens, UniProt P07900).
T1 construct: His tag (inferred from purification on a HisPrep FF column); made in house; host or cells: E. coli BL21 codon plus (Stratagene)
Nature of the experiment: Assay for the activity of inhibiting HSP90 enzyme (ATPase, malachite green). The following applies: purified human HSP90 alpha, 1 mM ATP added, 37° C. for two hours, OD655; read-out: Enzyme-inhibiting activity (IC50, μM) Human HSP90α. It is filed as biochemical. As to the method: Introduction of pETHuHSP90a into E. coli (BL21 codon plus; Stratagene) was followed by O/N incubation in the presence of 0.1 mM IPTG, and the collected E. coli cells were disrupted by ultrasonication in a Lysis buffer (50 mM Tris-HCl (pH8.0), 10 mM MgCl2, 0.1% Triton X-100, Protease inhibitor cocktail tablets (Roche Diagnostics)). The cell lysate solution was centrifuged (10,000 rpm×30 minutes), and the supernatant obtained after centrifugation was used as a crude extract. The crude extract was fractionated using HisPrep FF column and HiTrap Q column (Amersham) to prepare a purified enzyme solution.
An enzyme solution for assays was prepared by dilution of the purified enzyme solution using an assay buffer (50 mM Tris HCl pH7.6, 20 mM KCl, 5 mM MgCl2).
10 μL each of various concentrations of the test substances (10% DMSO solution) was added to each well, and for the positive control wells, 10 μL of 10% DMSO was added. 10 μL of 10% DMSO was also added to the negative control well.
10 μL of 1 mM ATP was added to all of the wells, and the reaction was carried out at 37° C. for two hours.

Description for HCT116 cells: Cells were maintained under conditions recommended by the provider of each cell line. Cells suspended in a medium were added to solutions containing various concentrations of the test substance, and the cells were cultured at 37° C. in a 5% CO2 incubator. Four days later, Cell Counting Kit-8 was added, and absorbance measurements were taken following the protocol included in the kit.

For the molecule `Cc1cc(C)c2cc1C(=O)N(C)CCCNC(=O)CCSc1cc-2nc(N)n1` [Compound 3, 4-amino-15,18,20-trimethyl-7-thia-3,5,11,15-tetraazatricyclo[15.3.1.1^2,6]docosa-1(20),2(22),3,5,17(21),18-hexane-10,16-dione], the IC50 in the experiment with HCT116 cells amounted to 0.92 µM; on Human HSP90 alpha it was 1.6 µM.
For `Cc1cc(C)c2cc1C(=O)NCCNC(=O)CCCSc1cc-2nc(N)n1` [Compound 4, 4-amino-18,20-dimethyl-7-thia-3,5,12,15-tetraazatricyclo[15.3.1.1^2,6]docosa-1(20),2(22),3,5,17(21),18-hexaene-11,16-dione], at Human HSP90 alpha, the IC50 was 1 µM.
On to `Cc1cc(C)c2cc1C(=O)NCCCCNC(=O)CCCSc1cc-2nc(N)n1` [Compound 5, 4-amino-20,22-dimethyl-7-thia-3,5,12,17-tetraazatricyclo[17.3.1.1^2,6]tetracosa-1(22),2(24),3,5,19(23),20-hexane-11,18-dione], for which the figures for the half-inhibitory concentration (IC50) in the experiment with HCT116 cells and on Human HSP90 alpha were 0.5 µM and 1 µM, respectively.
On the same counts, the results for `Cc1cc(C)c2cc1C(=O)NCCCCCNC(=O)C(C)CSc1cc-2nc(N)n1` (stereo not drawn) [Compound 7, 4-amino-9,20,22-trimethyl-7-thia-3,5,11,17-tetraazatricyclo[17.3.1.1^2,6]tetracosa-1(22),2(24),3,5,19(23),20-hexaene-10,18-dione] are 0.4 µM and 1.6 µM.
As for `Nc1nc2cc(n1)-c1cc(c(Cl)cc1Cl)C(=O)NCCCNC(=O)CCS2` [Compound 8, 4-amino-18,20-dichloro-7-thia-3,5,11,15-tetraazatricyclo[15.3.1.1^2,6]docosa-1(20),2(22),3,5,17(21),18-hexaene-10,16-dione], the figures for the half-inhibitory concentration (IC50) in the experiment with HCT116 cells and on Human HSP90 alpha were 0.21 µM and 2 µM, respectively.
For the molecule `COc1cc(C)c2cc1C(=O)NCCCC(=O)NCCSc1cc-2nc(N)n1` [Compound 9, 4-amino-18-methoxy-20-methyl-7-thia-3,5,10,15-tetraazatricyclo[15.3.1.1^2,6]docosa-1(20),2(22),3,5,17(21),18-hexaene-11,16-dione], the results for the IC50 in the experiment with HCT116 cells and on Human HSP90 alpha were greater than 10 µM and 1.9 µM, respectively.
On the same counts, the results for `COc1cc(C)c2cc1C(=O)N(C)CCCC(=O)NCCSc1cc-2nc(N)n1` [Compound 10, 4-amino-18-methoxy-15,20-dimethyl-7-thia-3,5,10,15-tetraazatricyclo[15.3.1.1^2,6]docosa-1(20),2(22),3,5,17(21),18-hexaene-11,16-dione] are greater than 10 µM and 1.1 µM.
On to `Cc1cc(C)c2cc1C(=O)NCCCC(=O)NCCSc1cc-2nc(N)n1` [Compound 11, 4-amino-18,20-dimethyl-7-thia-3,5,10,15-tetraazatricyclo[15.3.1.1^2,6]docosa-1(20),2(22),3,5,17(21),18-hexaene-11,16-dione], for which, at Human HSP90 alpha, the IC50 worked out at 1.2 µM.
With `Cc1cc(C)c2cc1C(=O)NCCC(=O)NCCSc1cc-2nc(N)n1` [Compound 12, 4-amino-17,19-dimethyl-7-thia-3,5,10,14-tetraazatricyclo[14.3.1.1^2,6]henicosa-1(19),2(21),3,5,16(20),17-hexaene-11,15-dione], the IC50 in the experiment on HCT116 cells amounted to 0.72 µM; at Human HSP90 alpha it was 1.3 µM.
Consider `Cc1cc(C)c2cc1C(=O)N(C)CCCC(=O)NCCSc1cc-2nc(N)n1` [Compound 13, 4-amino-15,18,20-trimethyl-7-thia-3,5,10,15-tetraazatricyclo[15.3.1.1^2,6]docosa-1(20),2(22),3,5,17(21),18-hexaene-11,16-dione], for which the values for the half-maximal inhibitory concentration (IC50) in the experiment with HCT116 cells and at Human HSP90 alpha were 4.4 µM and 1.2 µM, respectively.
As to `Cc1cc(C)c2cc1C(=O)NCCCCCC(=O)NCCSc1cc-2nc(N)n1` [Compound 14, 4-amino-20,22-dimethyl-7-thia-3,5,10,17-tetraazatricyclo[17.3.1.1^2,6]tetracosa-1(22),2(24),3,5,19(23),20-hexaene-11,18-dione], the IC50 in the experiment with HCT116 cells is 0.15 µM; at Human HSP90 alpha it was 0.8 µM.
For the molecule `Nc1nc2cc(n1)-c1cc(c(Cl)cc1Cl)C(=O)NCCCC(=O)NCCS2` [Compound 15, 4-amino-18,20-dichloro-7-thia-3,5,10,15-tetraazatricyclo[15.3.1.1^2,6]docosa-1(20),2(22),3,5,17(21),18-hexaene-11,16-dione], the IC50 was determined as 0.14 µM in the experiment with HCT116 cells and 1.6 µM at Human HSP90 alpha.
Regarding `COc1cc(C)c2cc1C(=O)NCCCOc1cccc(c1)Sc1cc-2nc(N)n1` [Compound 16, 4-amino-20-methoxy-22-methyl-13-oxa-7-thia-3,5,17-triazatricyclo[17.3.1.1^2,6.1^8,12]pentacosa-1(22),2(24),3,5,8(25),9,11,19(23),20-nonaen-18-one], on Human HSP90 alpha, the IC50 is 1.6 µM.
Still for that read-out and setting: under `CCOc1cc(C)c2cc1C(=O)NCCCOc1cccc(c1)Sc1cc-2nc(N)n1` [Compound 17, 4-amino-20-ethoxy-22-methyl-13-oxa-7-thia-3,5,17-triazatricyclo[17.3.1.1^2,6.1^8,12]pentacosa-1(22),2(24),3,5,8(25),9,11,19(23),20-nonaen-18-one] stands 1.3 µM; under `Nc1nc2cc(n1)-c1cc(c(Cl)cc1Cl)OCCCCOc1cccc(c1)S2` [Compound 21, 4-amino-20,22-dichloro-13,18-dioxa-7-thia-3,5-diazatricyclo[17.3.1.1^2,6.1^8,12]pentacosa-1(23),2,4,6(24),8,10,12(25),19,21-nonaene], 1.8 µM.
Take `Nc1nc2cc(n1)-c1cc(c(Cl)cc1Cl)OCCCCCOc1cccc(c1)S2` [Compound 22, 4-amino-21,23-dichloro-13,19-dioxa-7-thia-3,5-diazatricyclo[18.3.1.1^2,6.1^8,12]hexacosa-1(24),2,4,6(24),8,10,12(26),20,22-nonaene]: the results for the IC50 with HCT116 cells and on Human HSP90 alpha were 2.4 µM and 1.7 µM, respectively.
On the same counts, the results for `Nc1nc2cc(n1)-c1cc(c(Cl)cc1Cl)OCCOCCOc1cccc(c1)S2` [Compound 23, 21,23-dichloro-13,16,19-trioxa-7-thia-3,5-diazatricyclo[18.3.1.1^2,6.1^8,12]hexacosa-1(23),2(25),3,5,8(26),9,11,20(24),21-nonaen-4-ylamine] are 1.4 µM and 1.1 µM.
On the same counts, the results for `Nc1nc2nc(n1)-c1cc(c(Cl)cc1Cl)OCCCCOc1cccc(c1)S2` [Compound 26, 20,22-dichloro-13,18-dioxa-7-thia-3,5,24-triazatricyclo[17.3.1.1^2,6.1^8,12]pentacosa-1(22),2(24),3,5,8(25),9,11,19(23),20-nonaen-4-ylamine] are 7.4 µM and 3.3 µM.
As for `Nc1nc2nc(n1)-c1cc(c(Cl)cc1Cl)OCCOCCOc1cccc(c1)S2` [Compound 27, 21,23-dichloro-13,16,19-trioxa-7-thia-3,5,25-triazatricyclo[18.3.1.1^2,6.1^8,12]hexacosa-1(23),2(25),3,5,8(25),9,11,20(24),21-nonaen-4-ylamine], the 50% inhibitory concentration (IC50) with HCT116 cells came to 1.4 µM; at Human HSP90 alpha, 2.1 µM.
On the same counts, the results for `Nc1nc2cc(n1)-c1cc(c(Cl)cc1Cl)C(=O)NCCCCCC(=O)NCCS2` [Compound 28, 4-amino-20,22-dichloro-7-thia-3,5,10,17-tetraazatricyclo[17.3.1.1^2,6]tetracosa-1(22),2(24),3,5,19(23),20-hexaene-11,18-dione] are 0.2 µM and 1.4 µM.
For the molecule `Cc1cc(C)c2cc1C(=O)NCCOCCNC(=O)CCSc1cc-2nc(N)n1` [Compound 29, 4-amino-20,22-dimethyl-14-oxa-7-thia-3,5,11,17-tetraazatricyclo[17.3.1.1^2,6]tetracosa-1(22),2(24),3,5,19(23),20-hexaene-10,18-dione], the half-maximal inhibitory concentration (IC50) was determined as 0.3 µM with HCT116 cells and 1.7 µM at Human HSP90 alpha.
On the same counts, the results for `Cc1cc(C)c2cc1C(=O)NCCN(C)CCNC(=O)CCSc1cc-2nc(N)n1` [Compound 30, 4-amino-14,20,22-trimethyl-7-thia-3,5,11,14,17-pentaazatricyclo[17.3.1.1^2,6]tetracosa-1(22),2(24),3,5,19(23),20-hexaene-10,18-dione] are 0.5 µM and 1.8 µM.
`Cc1cc(C)c2cc1C(=O)NC[C@@H](O)CNC(=O)CCSc1cc-2nc(N)n1` [Compound 31, (S)-4-amino-13-hydroxy-18,20-dimethyl-7-thia-3,5,11,15-tetraazatricyclo[15.3.1.1^2,6]docosa-1(20),2(22),3,5,17(21),18-hexaene-10,16-dione]: the IC50 in the experiment on HCT116 cells was 1.3 µM; on Human HSP90 alpha it was 0.8 µM.
In the case of `Cc1cc(C)c2cc1C(=O)NCCCN(C)C(=O)CCSc1cc-2nc(N)n1` [Compound 32, 4-amino-11,18,20-trimethyl-7-thia-3,5,11,15-tetraazatricyclo[15.3.1.1^2,6]docosa-1(20),2,4,6(22),17(21),18-hexaene-10,16-dione], the IC50 worked out at 0.4 µM with HCT116 cells and 0.5 µM at Human HSP90 alpha.
Take `Cc1cc(C)c2cc1C(=O)NCCCN(CCO)C(=O)CCSc1cc-2nc(N)n1` [Compound 34, 4-amino-11-(2-hydroxyethyl)-18,20-dimethyl-7-thia-3,5,11,15-tetraazatricyclo[15.3.1.1^2,6]docosa-1(20),2,4,6(22),17(21),18-hexaene-10,16-dione]: the values for the IC50 with HCT116 cells and at Human HSP90 alpha were 1.1 µM and 2.8 µM, respectively.

One may read the IC50 as the concentration that inhibits the measured activity by half.
